Peptide text beside a SMILES is read from it. * marks the point of attachment. Palmitoyl = CCCCCCCCCCCCCCCC(=O)*; X1 = NCOCCOCCOCCCN*
How the values were obtained:
papain [1] = target: T1, papain (Carica papaya, UniProt P00784); experiment: Peptide degradation by proteases (Example 8a, PP-4 peptide); format: in vitro ADME
T1 sequence (P00784 134-345): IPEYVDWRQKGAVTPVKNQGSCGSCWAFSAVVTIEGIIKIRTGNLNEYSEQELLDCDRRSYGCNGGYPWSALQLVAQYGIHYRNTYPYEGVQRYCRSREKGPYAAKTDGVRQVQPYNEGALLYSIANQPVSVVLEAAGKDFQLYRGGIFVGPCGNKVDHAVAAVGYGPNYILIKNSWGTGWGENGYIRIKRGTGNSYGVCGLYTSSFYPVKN
Experimental: a) 5 mg of each of the formulations of Example 1b and Comparative example 6b were incubated at 40° C. with 20 mg of papain. Samples were taken at study times 0 h, 0.3 h, 0.6 h, and 5 h after the addition of papain, centrifuged at 1400 rpm for 1 min, and the supernatant was filtered using a 0.45 μm filter and analyzed by HPLC.
(§1) HPLC analysis was carried out in a Waters 996 instrument with a diode array detector equipped with Waters 2695 separations module and Millenium software; an Xbridge BEH130 C18 4.6×100 mm 3.5 μm reversed phase column by Waters was used. UV detection was performed at 220 nm and a mobile phase B gradient of 5 to 100% was performed for 8 minutes at 1.0 ml/min of flow. Under these conditions, the retention time of the peptide of formula (I) wherein R is palmitoyl (Matrixyl®, PP-4) is 6.4 min. Mobile phase A: 0.045% TFA/H2O, mobile phase B: 0.036% TFA/acetonitrile.

papain [2] = target: T1, papain; experiment: Peptide degradation by proteases (Example 8b, PH-26 peptide); format: in vitro ADME
Experimental: b) 20 mg of papain were added to the formulation of Comparative example 6c, and 1.5 mg of papain were added to a solution of 40 mg of the formulation of Example 1c in 1.0 mL of PBS buffer. Both samples were incubated at 40° C. Aliquots were taken at study times 0 h, 0.17 h, 0.3 h and 24 h, after the addition of papain, centrifuged at 1400 rpm for 1 min, and the supernatant was filtered using a 0.45 μm filter and analyzed by HPLC.
as §1

degradation with papain (in words) (papain [1])	degradation with papain (in words) (papain [2])	Compound
completely degraded	–	CCCCCCCCCCCCCCCC(=O)N[C@@H](CCCCN)C(=O)N[C@H](C(=O)N[C@H](C(=O)N[C@@H](CCCCN)C(=O)N[C@@H](CO)C(=O)O)[C@@H](C)O)[C@@H](C)O [PP-4, Palm-L-Lys-L-Thr-L-Thr-L-Lys-L-Ser-OH] (Palmitoyl-KTTKS-OH)
–	nearly completely degraded	CCCCCCCCCCCCCCCC(=O)N[C@@H](CCCCN)C(=O)N[C@@H](C)C(=O)N[C@@H](CCC(N)=O)C(=O)N[C@@H](CCCCN)C(=O)N[C@@H](CCCNC(=N)N)C(=O)N[C@@H](Cc1ccccc1)C(=O)NCCCOCCOCCOCN [PH-26 peptide, R1-L-Lys-L-Ala-L-Gln-L-Lys-L-Arg-L-Phe-NH—(CH2)3—O—(CH2)2—O—(CH2)2—O—(CH2)—NH2] (Palmitoyl-KAQKRF-X1; N-terminus and C-terminus assumed)

— US20210121376A1, “PEPTIDES ENCAPSULATED IN LECITHIN AND ALGINATE” (INFINITEC ACTIVOS, S.L., priority 2018, published 2021)
